Data from patent publication US6511965B2, “Ether type lipid A 1-carboxylic acid analogs” (Sankyo Company, Limited, priority 1999, dated 2003).
Like-named read-outs stand apart in the source and are kept apart here.

Tests used:
[1] = test system: TNF α production by U937 cells; assay: Test on macrophage activity inhibition (antagonist test): LPS antagonistic activity on TNFα production by U937 cells; format: cell-based; conditions: in the presence of 10 ng/ml of LPS, human monocytic U937 cells, 6 hours, TNFα by ELISA, concentration suppressing TNFα to 50% of standard production amount, read-out: IC50(nM), LPS antagonistic activities of the compounds on TNF α production by U937 cells
Experimental: Test on macrophage activity inhibition (antagonist test).
TNFα is produced in vitro using human monocytic cell strain U937. The production amount of TNFα is determined by ELISA KIT of Genzyme Corporation.
Evaluation is carried out in accordance with the method of Daniel-Issakani, et al. (Journal of Biological Chemistry, 264, 20240-20247 (1989)).
By 10 ng/ml of LPS (lipopolysaccharide), about 1 ng of TNFα is produced per 10^5 cells of U937 during 6 hours (designated as a standard production amount: 100%).
In the presence of 10 ng/ml of LPS, the concentration of each of the compounds obtained in the Examples at which the production amount of TNFα is suppressed to 50% of the standard production amount is determined and it is expressed as ED50%.

Row | Structure (SMILES) | IC50 ([1]; U-937) [nM] | melting point [°C] | IC50 [1] [nM]
1 | CCCCCCCCCCCCO[C@H](CCCCCCCCCCC)CCO[C@@H]1[C@@H](NC(C)=O)[C@H](OC[C@H]2O[C@H](C(=O)O)[C@H](NC(=O)C[C@H](O)CCCCCCCCCCC)[C@@H](OCC[C@H](O)CCCCCCCCCCC)[C@@H]2O)O[C@H](CO)[C@H]1OP(=O)(O)O [Example 4, 2,6-Anhydro-7-O-[2-acetylamino-2-deoxy-3-O-{(R)-3-dodecyloxytetradecyl}-4-O-phosphono-β-D-glucopyranosyl]-3-{(R)-3-hydroxytetradecanoylamino}-4-O-{(R)-3-hydroxytetradecyl}-3-deoxy-D-glycero-D-ido-heptonic Acid] | 11 | 179 to 181 | –
2 | CCCCCCCCCCCCO[C@H](CCCCCCCCCCC)CCO[C@@H]1[C@@H](NC(C)=O)[C@H](OC[C@H]2O[C@H](C(=O)O)[C@H](NC(=O)C[C@H](O)CCCCCCCCCCC)[C@@H](OCC[C@H](O)CCCCCCCCCCC)[C@@H]2O)O[C@H](COC)[C@H]1OP(=O)(O)O [Example 5, 2,6-Anhydro-7-O-[2-acetylamino-2-deoxy-3-O-{(R)-3-dodecyloxytetradecyl}-6-O-methyl-4-O-phosphono-β-D-glucopyranosyl]-3-{(R)-hydroxytetradecanoylamino}-4-O-{(R)-3-hydroxytetradecyl}-3-deoxy-D-glycero-D-ido-heptonic Acid] | – | – | 6.4
3 | CCCCCCCCCCCCCC(=O)O[C@H](CCCCCCCCCCC)CCO[C@H]1[C@H](OP(=O)(O)O)[C@@H](CO)OC(OC[C@H]2O[C@H](C(=O)O)[C@H](NC(=O)C[C@H](O)CCCCCCCCCCC)[C@@H](OCC[C@H](O)CCCCCCCCCCC)[C@@H]2O)[C@@H]1NC(C)=O (stereo partly drawn) [Example 1, 2,6-Anhydro-7-O-[2-acetylamino-2-deoxy-4-O-phosphono-3-O-{(R)-3-tetradecanoyloxytetradecyl}-D-glucopyranosyl]-3-{(R)-3-hydroxytetradecanoylamino}-4-O-{(R)-3-hydroxytetradecyl}-3-deoxy-D-glycero-D-ido-heptonic Acid] | 11 | – | –
4 | CCCCCCCCCCCCCC(=O)O[C@H](CCCCCCCCCCC)CCO[C@@H]1[C@@H](NC(C)=O)[C@H](OC[C@H]2O[C@H](C(=O)O)[C@H](NC(=O)C[C@H](O)CCCCCCCCCCC)[C@@H](OCC[C@H](O)CCCCCCCCCCC)[C@@H]2O)O[C@H](COC)[C@H]1OP(=O)(O)O [Example 2, 2,6-Anhydro-7-O-[2-acetylamino-2-deoxy-6-O-methyl-4-O-phosphono-3-O-{(R)-3-tetradecanoyloxytetradecyl}-β-D-glucopyranosyl]-3-{(R)-3-hydroxytetradecanoylamino}-4-O-{(R)-3-hydroxytetradecyl}-3-deoxy-D-glycero-D-ido-heptonic Acid] | 0.61 | – | –
5 | CCCCCCCCCCCCO[C@H](CCCCCCCCCCC)CCO[C@@H]1[C@@H](NC(C)=O)[C@H](OC[C@H]2O[C@H](C(=O)O)[C@H](NC(=O)C[C@H](O)CCCCCCCCCCC)[C@@H](OCC[C@H](O)CCCCCCCCCCC)[C@@H]2O)O[C@H](CF)[C@H]1OP(=O)(O)O [Example 6] | – | – | 10
6 | CCCCCCCCCCCCCC(=O)O[C@H](CCCCCCCCCCC)CCO[C@@H]1[C@@H](NC(C)=O)[C@H](OC[C@H]2O[C@H](C(=O)O)[C@H](NC(=O)C[C@H](O)CCCCCCCCCCC)[C@@H](OCC[C@H](O)CCCCCCCCCCC)[C@@H]2O)O[C@H](CF)[C@H]1OP(=O)(O)O [Example 3, 2,6-Anhydro-7-O-[2-acetylamino-2,6-dideoxy-6-fluoro-4-O-phosphono-3-O-{(R)-3-tetradecanoyloxytetradecyl}-β-D-glucopyranosyl]-3-{(R)-3-hydroxytetradecanoylamino}-4-O-{(R)-3-hydroxytetradecyl}-3-deoxy-D-glycero-D-ido-heptonic Acid] | 1.2 | – | –
